Data: PubChem BioAssay AID290 (DTP/NCI, 2004)
Several values for one entry are separate records, joined by “and”; a condition that tells them apart may be missing. Identical values can stand only once. Results filed as inconclusive are left out. *1 amine or outer side, *2 acyl side, *3 side chain or, on linkers, in order; H or OH if unused. Where a SMILES comes first, the peptide text is derived from it. Bridges are numbered along the chain shown (N, C = ends). Roman numbers before positions name the chains, in order. [ ]: non-standard residue; d: D form. Actinocin(9to1) = Cc1c2oc3c(C)ccc(C(=O)[*:1])c3nc-2c(C(=O)[*:2])c(N)c1=O; aThr = C[C@H](O)[C@H](N)C(=O)O; NMeV = CN[C@H](C(=O)O)C(C)C; Sar = CNCC(=O)O

Tested on: mice, P1798 lymphosarcoma sc, survival or tumor weight T/C
Assay: NCI In Vivo Anticancer Drug Screen. Data for tumor model P1798 Lymphosarcoma (subcutaneous) in unknown mice
Conditions: endpoint: mean tumor weight, higher = larger tumour
Experimental: The antitumor activity of compounds was measured in mice bearing transplantable tumors. Survival or tumor size were measured and the results are expressed as the measurement made in the treated group (T) divided by the measurement made in the vehicle treated control group (C). The tumor model used in this assay is P1798 Lymphosarcoma (subcutaneous) in unknown mice

## COc1ccc(-c2c(CC(=O)O)c3cc(OC)ccc3n2Cc2ccc(Cl)cc2)cc1
dose: 125.0 mg/kg/injection, schedule: Q01DX010 (ip), vehicle: saline
  T/C: 105 % of control
dose: 250.0 mg/kg/injection, schedule: Q01DX010 (ip), vehicle: saline
  T/C: 108 % of control
dose: 500.0 mg/kg/injection, schedule: Q01DX010 (ip), vehicle: saline
  T/C: 112 % of control
dose: 1000.0 mg/kg/injection, schedule: Q01DX010 (ip), vehicle: saline
  T/C: 110 % of control

## CCn1cnc2c(=S)nc[nH]c21
dose: 7.75 mg/kg/injection, schedule: Q01DX010 (ip), vehicle: carboxymethylcellulose (CMC)
  T/C: 117 % of control
dose: 15.5 mg/kg/injection, schedule: Q01DX010 (ip), vehicle: carboxymethylcellulose (CMC)
  T/C: 95 % of control
dose: 31.0 mg/kg/injection, schedule: Q01DX010 (ip), vehicle: carboxymethylcellulose (CMC)
  T/C: 82 % of control

## OCC1OC(n2cnc3c(Cl)ncnc32)C(O)C1O (configuration not stated)
dose: 62.5 mg/kg/injection, schedule: Q01DX010 (ip), vehicle: carboxymethylcellulose (CMC)
  T/C: 104 % of control
dose: 125.0 mg/kg/injection, schedule: Q01DX010 (ip), vehicle: carboxymethylcellulose (CMC)
  T/C: 107 % of control
dose: 250.0 mg/kg/injection, schedule: Q01DX010 (ip), vehicle: carboxymethylcellulose (CMC)
  T/C: 92 % of control
dose: 500.0 mg/kg/injection, schedule: Q01DX010 (ip), vehicle: carboxymethylcellulose (CMC)
  T/C: 91 % of control and 95 % of control
dose: 1000.0 mg/kg/injection, schedule: Q01DX010 (ip), vehicle: carboxymethylcellulose (CMC)
  T/C: 79 % of control

## Cn1c(O)c(N=NC(N)=S)c2ccccc21
dose: 25.0 mg/kg/injection, schedule: Q01DX011 (ip), vehicle: carboxymethylcellulose (CMC)
  T/C: 206 % of control
dose: 50.0 mg/kg/injection, schedule: Q01DX011 (ip), vehicle: carboxymethylcellulose (CMC)
  T/C: 117 % of control
dose: 100.0 mg/kg/injection, schedule: Q01DX011 (ip), vehicle: carboxymethylcellulose (CMC)
  T/C: 87 % of control

## S=c1nc[nH]c2nc[nH]c12
dose: 3.12 mg/kg/injection, schedule: Q01DX010 (ip), vehicle: other
  T/C: 103 % of control
dose: 6.25 mg/kg/injection, schedule: Q01DX010 (ip), vehicle: other
  T/C: 83 % of control
dose: 12.5 mg/kg/injection, schedule: Q01DX010 (ip), vehicle: other
  T/C: 74 % of control and 77 % of control and 88 % of control
dose: 18.7 mg/kg/injection, schedule: Q01DX010 (ip), vehicle: other
  T/C: 45 % of control
dose: 34.0 mg/kg/injection, schedule: Q01DX001 (ip), vehicle: carboxymethylcellulose (CMC)
  T/C: 92 % of control

## Cc1c2oc3c(C)ccc(C(=O)N[C@@H]4C(=O)N[C@H](C(C)C)C(=O)N5CCC[C@H]5C(=O)N(C)CC(=O)N(C)[C@@H](C(C)C)C(=O)O[C@H]4C)c3nc-2c(C(=O)N[C@@H]2C(=O)N[C@H](C(C)C)C(=O)N3CCC[C@H]3C(=O)N(C)CC(=O)N(C)[C@@H](C(C)C)C(=O)O[C@H]2C)c(N)c1=O (I: [aThr][dV]P[Sar][NMeV] / II: [aThr][dV]P[Sar][NMeV]; ester I:1-I:C, II:1-II:C; linker I:N-II:N via Actinocin(9to1))
dose: 2.0 micrograms/kg/injection, schedule: Q01DX010 (ip), vehicle: saline
  T/C: 117 % of control
dose: 20.0 micrograms/kg/injection, schedule: Q01DX010 (ip), vehicle: saline
  T/C: 46 % of control
